Measurements: patent US20230351587A1, “METHODS AND SYSTEMS FOR PREDICTING NEURODEGENERATIVE DISEASE STATE” (New York Stem Cell Foundation, Inc., priority 2020, published 2023)

System: healthy, LRRK2, and sporadic PD cells
Assay: Relative distance between treated cell groups and 0.16% DMSO control (morphological profiles)
Assay type: cell-based, human
Details: vs 0.16% DMSO; tile embeddings, single cell embeddings and feature vector models; three increasing doses; FIGS. 13A-13C
Experimental: In this example, the same automated platform as described above in Examples 1 and 2 was implemented to morphologically profile large collections of cells that were treated using any of a number of perturbations. Example perturbations include bafilomycin, carbonyl cyanide m-chlorophenyl hydrazone (CCCP), MG312, rotenone, valinomycin as well as control groups (untreated and 0.16% DMSO). Specifically, healthy or PD cells of known subtype (e.g., LRKK2 subtype or sporadic subtype) were cultured in vitro and treated with varying doses of the perturbations. For example, for bafilomycin, treatments included 15.63 nM, 31.25 nM, and 62.5 nM bafilomycin. For CCCP, the treatments included 390.5 nM, 781 nM, and 1562 nM. For MG312, the treatments included 234.38 nM, 468.75 nM, and 937.5 nM. For rotenone, the treatments included 7.81 nM, 15.63 nM, and 31.25 nM. For valinomycin, the treatments included 3.91 nM, 7.81 nM, and 15.63 nM.
Following in vitro treatment of healthy cells and PD subtype cells using the aforementioned concentrations of perturbagens, the cells were imaged using the automated imaging platform and subsequently analyzed using predictive models. In particular, three predictive models were implemented: 1) predictive model including tile embeddings, 2) predictive model including single cell embeddings, and 3) predictive model including extracted features (e.g., CellProfiler features). […]

## CO/C1=C\C(C)=C\[C@@H](C)[C@@H](O)[C@@H](C)C/C(C)=C/C=C/[C@H](OC)[C@@H]([C@@H](C)[C@@H](O)[C@H](C)[C@@]2(O)C[C@@H](O)[C@H](C)[C@@H](C(C)C)O2)OC1=O [Bafilomycin, bafilomycin]
  relative distance between treated cell groups in comparison to controls: increase in distance in response to increasing dose
